From ChEMBL document CHEMBL6134859, “Unlocking the antiviral arsenal: Structure-guided optimization of small-molecule inhibitors against RSV and hCoV-229E” (Eur J Med Chem, 2025) come the findings set out here.

In brackets after ≈: the same amount, converted by molar mass.

The nature of the data set: Kinetic solubility of the compound in 1%DMSO/PBS measured after 5 mins. Format: physicochemical. The settings on record: read-out: Kinetic_solubility.
For `COc1ccc(C(C)=O)cc1COc1ncnc2c(-c3ccccc3)cccc12`, the solubility kinetic at 5 min amounted to 35 µM (≈ 13.5 µg/mL).
The figure for `Fc1ccccc1COc1ncnc2c(Cl)cc(Cl)cc12` is 26 µM (≈ 8.4 µg/mL).
The same measure for `COc1ccc(C(C)=O)cc1COc1ncnc2c(C3CC3)cccc12`: 27 µM (≈ 9.41 µg/mL).
Regarding `CC(=O)c1ccccc1COc1ncnc2c(Cl)cc(Cl)cc12`, the solubility kinetic at 5 min stood at 43 µM (≈ 14.9 µg/mL).
The same measure for `COc1ccc(C(C)=O)cc1COc1ncnc2c(C)cc(C)cc12`: over 100 µM; for `Fc1ccc(COc2ncnc3c(Cl)cc(Cl)cc23)cc1`: 22 µM (≈ 7.11 µg/mL); for `COCCOc1ccccc1COc1ncnc2c(Cl)cc(Cl)cc12`: 42 µM (≈ 15.9 µg/mL).
In the case of `COc1ccc(C(C)=O)cc1COc1ncnc2c(Cl)cccc12`, the solubility kinetic at 5 min turned out to be 58 µM (≈ 19.9 µg/mL).
With `COc1ccc(C(C)=O)cc1COc1ncnc2c(C(F)(F)F)cccc12`, the solubility kinetic at 5 min amounted to 33 µM (≈ 12.4 µg/mL).
The same measure for `Clc1cc(Cl)c2ncnc(OCc3ccccc3-c3cccnc3)c2c1`: 60 µM (≈ 22.9 µg/mL).
The same measure for `Cc1ccc(COc2ncnc3c(Cl)cc(Cl)cc23)cc1`: 12 µM (≈ 3.83 µg/mL); for `FC(F)(F)c1ccc(COc2ncnc3c(Cl)cc(Cl)cc23)cc1`: 18 µM (≈ 6.72 µg/mL).
The same measure for `COc1ccc(C(C)=O)cc1COc1ncnc2c(OCc3cc(C(C)=O)ccc3OC)cccc12`: 53 µM (≈ 25.8 µg/mL); for `COc1ccc(C(C)=O)cc1CNc1ncnc2c(Cl)cc(Cl)cc12`: over 100 µM; for `COc1ccc(C(C)=O)cc1COc1ncnc2c(Cl)ccc(Cl)c12`: 37 µM (≈ 14 µg/mL).
Take `COc1ccc(C(C)=O)cc1C(=O)Nc1ncnc2c(Cl)cc(Cl)cc12`: the solubility kinetic at 5 min was over 100 µM.
As to `Clc1cc(Cl)c2ncnc(OCc3cccc4c3OCO4)c2c1`, the solubility kinetic at 5 min was 21 µM (≈ 7.33 µg/mL).
The same measure for `COc1ccc(C(C)=O)cc1COc1ncnc2c(Cl)cc(Cl)cc12`: 62 µM (≈ 23.4 µg/mL).
The same measure for `COC(=O)c1ccc(COc2ncnc3c(Cl)cc(Cl)cc23)cc1`: 25 µM (≈ 9.08 µg/mL); for `COc1cccc(OC)c1COc1ncnc2c(Cl)cc(Cl)cc12`: 21 µM (≈ 7.67 µg/mL).
As to `COc1cccc(COc2ncnc3c(Cl)cc(Cl)cc23)c1`, the solubility kinetic at 5 min is 22 µM (≈ 7.37 µg/mL).
As for `O=C(O)c1ccccc1COc1ncnc2c(Cl)cc(Cl)cc12`, the solubility kinetic at 5 min is over 100 µM.
As to `COc1ccc(C(C)=O)cc1COc1ncnc2c(F)cccc12`, the solubility kinetic at 5 min was over 100 µM.
The same measure for `COC(=O)c1ccccc1COc1ncnc2c(Cl)cc(Cl)cc12`: 22 µM (≈ 7.99 µg/mL); for `COc1ccc(COc2ncnc3c(Cl)cc(Cl)cc23)cc1`: 44 µM (≈ 14.7 µg/mL); for `COc1ccccc1CSc1ncnc2c(Cl)cc(Cl)cc12`: 24 µM (≈ 8.43 µg/mL).
The figure for `COc1ccccc1COc1ncnc2c(Cl)cc(Cl)cc12` is 32 µM (≈ 10.7 µg/mL).
The figure for `COc1ccc(C(C)=O)cc1COc1ncnc2c(N3CCOCC3)cccc12` is over 100 µM.
Regarding `COc1ccc(C(C)=O)cc1CSc1ncnc2c(Cl)cc(Cl)cc12`, the solubility kinetic at 5 min was determined as 17 µM (≈ 6.69 µg/mL).
On to `Clc1cc(Cl)c2ncnc(OCc3ccccc3)c2c1`, for which the solubility kinetic at 5 min amounted to 25 µM (≈ 7.63 µg/mL).
The same measure for `CC(=O)c1ccc(-c2cccnc2)c(COc2ncnc3c(Cl)cc(Cl)cc23)c1`: over 100 µM.
Consider `COc1ccc(C(C)=O)cc1COc1ncnc2c(OC)cccc12`, for which the solubility kinetic at 5 min was over 100 µM.
Turning to `COc1ccc(C(C)=O)cc1COc1ncnc2c(S(C)(=O)=O)cccc12`, the solubility kinetic at 5 min was over 100 µM.
As for `O=C(O)c1cccc(COc2ncnc3c(Cl)cc(Cl)cc23)c1`, the solubility kinetic at 5 min is over 100 µM.
The figure for `COC(=O)c1cccc2c(OCc3cc(C(C)=O)ccc3OC)ncnc12` is over 100 µM.
Take `COc1ccc(C(C)=O)cc1COc1ncnc2c(Cl)cc(C)cc12`: the solubility kinetic at 5 min is 66 µM (≈ 23.5 µg/mL).
The figure for `CCc1ccc(C(C)=O)cc1COc1ncnc2c(Cl)cc(Cl)cc12` is 21 µM (≈ 7.88 µg/mL).
The figure for `CCc1ccc(OC)c(COc2ncnc3c(Cl)cc(Cl)cc23)c1` is 34 µM (≈ 12.4 µg/mL); for `COc1ccc(C(C)=O)cc1COc1ncnc2cc(Cl)ccc12` it is 26 µM (≈ 8.91 µg/mL).
The same measure for `O=C(O)c1ccc(COc2ncnc3c(Cl)cc(Cl)cc23)cc1`: over 100 µM.
As to `COc1ccc(C(C)=O)cc1COc1ncnc2cccc(Cl)c12`, the solubility kinetic at 5 min was found to be 54 µM (≈ 18.5 µg/mL).
The figure for `COc1cc(COc2ncnc3c(Cl)cc(Cl)cc23)cc(C(C)=O)c1` is 21 µM (≈ 7.92 µg/mL).
The same measure for `CCc1ccccc1COc1ncnc2c(Cl)cc(Cl)cc12`: 28 µM (≈ 9.33 µg/mL).
The figure for `COc1c(COc2ncnc3c(Cl)cc(Cl)cc23)cccc1C(C)=O` is 57 µM (≈ 21.5 µg/mL).
As to `Clc1cc(Cl)c2ncnc(OCc3ccc(Br)cc3)c2c1`, the solubility kinetic at 5 min is 12 µM (≈ 4.61 µg/mL).
Consider `CC(=O)c1cccc(COc2ncnc3c(Cl)cc(Cl)cc23)c1`, for which the solubility kinetic at 5 min came to 46 µM (≈ 16 µg/mL).
The same measure for `COc1ccc(C(C)=O)cc1COc1ncnc2ccc(Cl)cc12`: 60 µM (≈ 20.6 µg/mL).
The same measure for `COc1ccc(C(C)=O)cc1COc1ncnc2cc(Cl)cc(Cl)c12`: 41 µM (≈ 15.5 µg/mL).
The figure for `Clc1cc(Cl)c2ncnc(OCc3ccccc3Br)c2c1` is 20 µM (≈ 7.68 µg/mL); for `Clc1ccc(COc2ncnc3c(Cl)cc(Cl)cc23)cc1` it is 18 µM (≈ 6.11 µg/mL).
For the compound `N#Cc1ccc(COc2ncnc3c(Cl)cc(Cl)cc23)cc1`, the solubility kinetic at 5 min stood at 25 µM (≈ 8.25 µg/mL).
The figure for `COc1ccc(COc2ncnc3c(Cl)cc(Cl)cc23)cc1C(C)=O` is 39 µM (≈ 14.7 µg/mL).
The figure for `COc1ccc(C(C)=O)cc1COc1ncnc2c(C)cc(Cl)cc12` is 50 µM (≈ 17.8 µg/mL); for `COc1ccc(C(C)=O)cc1COc1ncnc2c(C)cccc12` it is 57 µM (≈ 18.4 µg/mL).
The figure for `COc1ccc(C(C)=O)cc1COc1ncnc2c(C#N)cccc12` is over 100 µM.
Take `COc1cccc(C(C)=O)c1COc1ncnc2c(Cl)cc(Cl)cc12`: the solubility kinetic at 5 min is 44 µM (≈ 16.6 µg/mL).
The same measure for `COc1ccc(C(C)=O)cc1COc1ncnc2c(Br)cccc12`: 41 µM (≈ 15.9 µg/mL); for `Clc1cc(Cl)c2ncnc(OCc3ccccc3-c3ccccc3)c2c1`: 16 µM (≈ 6.1 µg/mL).
The same measure for `COc1cc(C(C)=O)ccc1COc1ncnc2c(Cl)cc(Cl)cc12`: 26 µM (≈ 9.81 µg/mL); for `COc1ccc(C(C)=O)cc1COc1ncnc2c(O)cccc12`: 55 µM (≈ 17.8 µg/mL).
As to `COc1ccc(C(C)=O)cc1COc1ncnc2c(-c3ccncc3)cccc12`, the solubility kinetic at 5 min was 32 µM (≈ 12.3 µg/mL).
